Laboratory results: US7615361B2, “Toxicity screening methods” (Ceetox, Inc., priority 2006, dated 2009)
Each block holds one molecule with its values, some of them ahead of it. No end group written: not given here.

Columns and labels:
rat cardiomyocytes [1] = assay: MTT reduction; assay type: cell-based
Description: (§1) One test compound (Compound A) was received as dry powder and evaluated for potential cytotoxicity in a battery of in vitro assays. The compound was tested using both rat cardiomyocytes (CM) from rat neonates and a rat hepatoma (H4IIE) cell line. […] The cell supernatant or the cells themselves were harvested for biochemical analysis. General cytotoxicity was evaluated by monitoring membrane integrity, mitochondrial function, cell proliferation, oxidative stress, and apoptosis. In addition, interaction with P-glycoprotein (PgP) on H4IIE cells and solubility of the test compound were also assessed. The means of each exposure group (n=3-7) were calculated for each assay performed.
(§2) Tetrazolium Dye Reduction: 3-[4,5-dimethylthiazol-2-yl]

[2] = Intracellular total glutathione (GSH); assay type: cell-based, rat; settings: rat, Total GSH TC50
Description: as §1
(§3) Experimental Protocol: The test compound was provided and stored at 4° C. until needed. Dosing solutions were prepared in complete culture medium. The rat hepatoma (H4IIE) cell line was used as the test system.

P-glycoprotein (PgP) = P-glycoprotein (PgP) binding: MTT with and without cyclosporin A; assay type: cell-based, rat; settings: H4IIE 24 HR; for % Control (Compound + CSA) / % Control (Compound): MTT, 50 μM; for % Control (Compound + CSA): with cyclosporin A; for % Control (Compound): without CSA; for % Difference: 1-20% low, 20-50% moderate, 50-100% high PgP interaction
Description: Several antiviral drugs are substrates for P-glycoprotein transporter (PgP).
P-glycoprotein (PgP) transport proteins are expressed in the bile canalicular membrane of normal liver. However, in neoplastic cells it is not uncommon to have expression of this transporter system in the plasma membrane. […] The existence of these transporters was evaluated with the Calcein-AM assay and with known substrates of PgP.

H4IIE cells [3] = assay: Predicted Ctox from Tox-Panel; assay type: cell-based, rat; settings: 24 HR, estimated sustained plasma concentration where toxicity would be expected in vivo
Description: Once all data for a given cluster of assays are received, the data are analyzed to obtain a detailed profile of the compound's toxicity. For example, most conveniently, the data are collated over a dose response range on a single graph. In such an embodiment, the measurement evaluated for each parameter (i.e., each indicator of cell health) at any given concentration is plotted as a percentage of a control measurement obtained in the absence of the compound. However, it should be noted that the data need not be plotted on a single graph, so long as all the parameters are analyzed collectively to yield detailed information of the effects of the concentration of the compound on the different parameters to yield an overall toxicity profile. As set forth below, this overall toxicity profile will facilitate a determination of a plasma concentration Ctox that is predicted to be toxic in vivo. Ctox represents an estimate of the sustained plasma concentration in vivo that would result in toxicity, such as hepatotoxicity or hematopoietic toxicity.
Studies such as these indicate that a preferred concentration for setting Ctox is the highest concentration at which there is no observed effect on any of the indicators being measured in the cluster analysis, especially a 24-hour cluster analysis. […] It will be apparent that 24 hour assays are more time-effective, and consequently, the 24 hour NOEL/Ctox represents a preferred data point to select as Ctox in a CATS assay. It will also be apparent that, with further time studies, it may be possible to select an equally suitable Ctox at other CATS assay time points (e.g., between 24 and 72 hours, or less than 24 hours).
In certain embodiments, the predicting comprises performing concentration response analyses of measurements from at least three separate assays that are employed in the cluster analysis. For example, in the cell health cluster, such predicting will involve monitoring the concentration response effect of the compound on a first health indicator which monitors cellular replication, a second cell health indicator which monitors mitochondrial function, and a third cell health indicator which monitors membrane integrity. Of course, it is understood that fourth, fifth, sixth or more cell health indicators also may be employed. From these concentration response analyses, the highest concentration of the chemical compound at which a measurable toxic effect of the chemical compound is not observable, i.e. NOEL, is determined and the Ctox is identified as the concentration that correlates to the NOEL. In choosing the concentrations of the compound for analysis, one of skill in the art should devise a dose response regimen which is selected to provide an indication of cell health at concentrations of at least two concentration values higher than the Ctox concentration.
The Ctox (H4IIE) value was developed using 24 hr in vitro toxicity data and was validated by retrospectively evaluating compounds across different classes of drugs in 14-day rat studies in which compounds were administered on a daily basis and pharmacokinetic data was available. […] Thus, Ctox values are only determined for the 24 hr in vitro results. The 6 hr toxicity analyses are typically not performed but are beneficial for interpretation of results when compound toxicity is high (e.g., Ctox≦20 μM).

Intracellular ATP levels [4] = assay type: cell-based, rat; settings: rat, ATP TC50
Description: as §1, §3
(§4) Intracellular ATP Levels: Cellular Adenosine triphosphate (ATP) was determined with an assay based on a reaction between ATP+D-luciferin+oxygen catalyzed by luciferase to yield Oxyluciferin+AMP+PPi+CO2+light. The emitted light is proportional to the amount of ATP present. […] In addition, a unique cell lysis reagent inhibits endogenous ATPases and therefore stabilizes cellular ATP by preventing its degradation to ADP. ATP is present in all-living cells and declines rapidly upon cell death. In addition, this assay in combination with the MTT assay provides an indicator of mitochondrial activity and energy status of the cell.
(§5) Plates were analyzed immediately or stored at −20° C. until needed. On the day of analysis, the plates were thawed and calibration curve prepared with ATP in the same liquid matrix as samples. ATP was quantified by adding ATP substrate solution and then reading luminescence on a Packard Fusion Luminescence or equivalent plate reader.
(§6) Intracellular ATP Levels: ATP levels in treated cells could be determined by using the regression coefficients obtained from the linear regression analysis of the calibration curve. Thus, values could be expressed as pmoles ATP/million cells. Background corrected luminescence was used to determine percent change relative to controls by dividing treated values by control values and multiplying by 100.

MTT reduction [5] = assay type: cell-based, rat; settings: rat, MTT TC50
Description: as §1, §3, §2

MTT reduction [6] = assay type: cell-based, rat; settings: rat
Description: as §1, §2

[7] = MemTox membrane leakage (AK / α-GST); assay type: cell-based, rat; settings: rat, MemTox TC50
Description: as §1, §3
(§7) Membrane Leakage (α-Glutathione S-transferase and/or Adenylate Kinase): The presence of Adenylate Kinase (AK) or α-Glutathione S-transferase (α-GST), both enzyme leakage markers, was measured in the culture medium using an activity assay for Adenylate Kinase and/or an ELISA assay for α-GST. At the end of the exposure period, the medium covering the cells in each well was removed and placed into new 96-well plates with appropriate labeling. […] Luminescence (AK) values were measured with a Packard Fusion or equivalent plate reader, and absorbance (α-GST) values were measured with a Packard SpectraCount™ or equivalent reader at 450 nm and reference absorbance at 650 nm.
(§8) Membrane Leakage (α-Glutathione S-transferase and/or Adenylate Kinase): Leakage of Adenylate Kinase or α-GST from the cell into the culture medium was determined by collecting the culture medium at the end of the exposure period. Thus, the values measured represent total enzyme leakage lost over the exposure period. The control for 100% dead or maximum enzyme release was based on cells treated with 1 mM digitonin at the time of dosing. Percent dead cells relative to digitonin treated cells was determined and then subtracted from 100% to yield the percent live cells.

[8] = MemTox membrane leakage (AK / α-GST); assay type: cell-based, rat; settings: rat
Description: as §1, §7, §8

Intracellular ATP levels [9] = assay type: cell-based, rat; settings: rat
Description: as §1, §4, §5, §6

[10] = Cell number (propidium iodide); assay type: cell-based, rat; settings: rat, Cell Number TC50
Description: as §1, §3
Cell Proliferation: Cell proliferation in each well was measured with propidium iodide (PI). This specific nucleic acid binding dye fluoresces when intercalated within the nucleic acids. The 15 nm shift enhances PI fluorescence approximately 20 times while the excitation maxima are shifted 30-40 nm. During method development experiments, it was determined that Triton-X-100 was the best solution to permeabilize the H4IIE cells thereby allowing the PI access to intracellular RNA and DNA. Fluorescence was measured using a Packard Fusion plate reader or equivalent reader at 540 nm excitation and 610 nm emission.
Cell Proliferation: After incubation, the test compound was removed and Triton X-100 solution containing propidium iodide is added. The plate was incubated and read on a fluorescent plate reader. Data was collected as relative fluorescent units (RFU). The blank was subtracted from the final well RFU. It represents the average of the first and last columns which contain no cells on that particular plate. The controls are untreated cells allowed to grow on the same plate. The compounds are represented by several separate RFU data points for each of the tested concentrations. The percent change relative to controls was calculated by dividing the average RFU by the control cell RFU and multiplying by 100.

[11] = Intracellular total glutathione (GSH); assay type: cell-based, rat; settings: rat
Description: as §1

rat cardiomyocytes [12] = assay: Membrane lipid peroxidation (8-isoprostane ELISA); assay type: cell-based; settings: rat, 24 h
Description: (§9) One test compound (Compound A) was received as dry powder and evaluated for potential cytotoxicity in a battery of in vitro assays. The compound was tested using both rat cardiomyocytes (CM) from rat neonates and a rat hepatoma (H4IIE) cell line. […] Camptothecin and rotenone were included as positive control compounds. The cell supernatant or the cells themselves were harvested for biochemical analysis. General cytotoxicity was evaluated by monitoring membrane integrity, mitochondrial function, cell proliferation, oxidative stress, and apoptosis. In addition, interaction with P-glycoprotein (PgP) on H4IIE cells and solubility of the test compound were also assessed. The means of each exposure group (n=3-7) were calculated for each assay performed. Intra assay variation well-to-well was typically less than 10% with plate to plate variation typically less than 20%.

H4IIE cells [13] = assay: Membrane lipid peroxidation (8-isoprostane ELISA); assay type: cell-based, rat; settings: rat, 24 h
Description: as §9, §3

BNP = assay: bDNA analysis of mRNA in rat cardiomyocytes; assay type: cell-based; settings: rat cardiomyocytes, 0.1 μM, after 3 hr
Excerpt: (§10) Hypertrophy of the heart ventricular myocytes is regulated by a complex series of intracellular signaling processes involving angiotensin receptors and a series of down stream gene expression changes (Li et al. 2006). Endothelin-1 (ET-1) induces hypertrophy of cardiomyocytes in vivo and in vitro. The mechanism of ET-1-induced hypertrophy consists in the activation of phospholipase C, protein kinase C, extra cellular signal regulated kinase (ERK) and upregulation of cfos and cjun.
(§11) Expression of ANP and BNP mRNA levels was determined by bDNA analysis of mRNA. ET-1 at 0.1 μM was included as a positive control.
(§12) […] Plates were mixed using a DPC 5 Micromix plate shaker at 37° C. for 15-30 minutes to ensure complete lysis of cells. Cell lysis was confirmed using a Nikon inverted microscope. Plates were stored at −80° C. until further analysis.
(§13) bDNA Analysis (Day 1): All solutions were prepared fresh on the day of analysis. Quantigene® bDNA kit components were brought to room temperature prior to use. Chemicals not supplied by Genospectra were obtained from Sigma-Aldrich.
(§14) On the day of analysis, Target Probe Sets were prepared for probe gene sets by adding 25 μL of each probe set component (CE, LE, BL) to 425 μL stock lysis solution using the following probe set concentrations: CE (50 fmol/μL), LE (200 fmol/μL), BL (100 fmol/μL).
(§15) Cell lysis plates were removed from freezer storage and thawed. […] Next, 10 μL of the appropriate Target Probe Set (PS2) was added to each appropriate well of the Capture Plate. Plates were tightly sealed using a plate sealer and incubated at 53° C. for 16-20 hr (overnight).
(§16) bDNA Analysis (Day 2): Wash buffer was prepared in ultra-pure water using 0.1×Saline-Sodium Citrate (SSC) and 0.03% Lithium Lauryl Sulfate (LLS). Amplifier working solution was prepared by adding 10 μL Amplifier to 10 mL Amplifier Diluent per plate.
(§17) Plates were removed from incubator and washed three times with 300 μL wash buffer. Wash buffer was completely removed from plates by aspiration and 100 μL Amplifier working solution was added to each well. Plates were sealed and incubated at 46° C. for 1 hr.
(§18) Label Probe working solution was prepared by adding 10 μL Label Probe to 10 mL Label Probe Diluent per plate. […] Plates were sealed and incubated at 46° C. for 1 hr.

ANP = assay: bDNA analysis of mRNA in rat cardiomyocytes; assay type: cell-based; settings: rat cardiomyocytes
Excerpt: as §10, §11, §12, §13, §14, §15, §16, §17, §18

[14] = system: H4IIE tumor cells, NRK cells, rat primary hepatocytes; assay: Anti-tumor screen in three rat cell types; assay type: cell-based
Description: In the Anti-tumor screen of the present invention, at least three different cell types are utilized: (1) tumor derived cells, (2) proliferating cells from normal tissue, and (3) non-proliferating cells from normal tissue. The evaluation of anti-tumor agents in multiple cell types provides information on mechanism-based toxicity versus efficacy.
The anti-tumor agent can be evaluated in a toxicity screen of key biochemical functions (as described in detail herein above), with emphasis placed on cell proliferation assays as well as biochemical function and cell viability. Comparisons can then be made to quantitative markers in the concentration response curves constructed with the toxicity data.
It is hypothesized to act through mitochondrial toxicity as well as apoptosis.

Molecule: Endothelin-1 (CSCSSLMDKECVYFCHLDIIW; ends and bridges not checked; cysteine pairing not given here; UniProt P05305 53-73, looked up) [ET-1, positive control inducing cardiomyocyte hypertrophy]
BNP expression increase (BNP): approximately 4.5 fold
ANP expression increase (ANP; 0.1 μM, after 3 hr): approximately 2 fold

Molecule: CS(=O)(=O)c1ccc(C2=C(c3ccccc3)C(=O)OC2)cc1 [Vioxx]
induction of the hypertrophy marker ANP, Vioxx versus Celebrex (ANP; normalized with GAPDH): more effective at inducing the hypertrophy marker ANP

Molecule: CN(Cc1cnc2nc(N)nc(N)c2n1)c1ccc(C(=O)N[C@@H](CCC(=O)O)C(=O)O)cc1 [Methotrexate]
sensitivity of cell types in the anti-tumor screen [14]: the tumor cell line is most sensitive to mitochondrial damage

Continued, in another order:

potency in heart cells relative to H4IIE liver cells (rat cardiomyocytes [1]): three to four-fold more potent
Molecule: Cc1ccc(NC(=O)c2ccc(CN3CCN(C)CC3)cc2)cc1Nc1nccc(-c2cccnc2)n1 [Imatinib]

% Difference (P-glycoprotein (PgP)): 21.9%
Molecule: Cc1ccnc2c1NC(=O)c1cccnc1N2C1CC1 [NEVIRAPINE, nevirapine]
CC50 at 24 h [2]: > 300 µM
% Control (Compound + CSA) (P-glycoprotein (PgP)): 90.2%
% Control (Compound) (P-glycoprotein (PgP)): 115.5%
Predicted Ctox (H4IIE cells [3]): 100 µM
CC50 at 24 h (Intracellular ATP levels [4]): > 300 µM
CC50 at 24 h (MTT reduction [5]): > 300 µM
CC50 at 24 h (MTT reduction [6]): > 300 µM
CC50 at 24 h [7]: > 300 µM
CC50 at 24 h [8]: > 300 µM
CC50 at 24 h (Intracellular ATP levels [9]): > 300 µM
CC50 at 24 h [10]: > 300 µM
CC50 at 24 h [11]: 251 µM

% Difference (P-glycoprotein (PgP)): 19.0%
Membrane Lipid Peroxidation (rat cardiomyocytes [12]): 0
Membrane Lipid Peroxidation (H4IIE cells [13]): 0
Molecule: CC(C)c1nc(CN(C)C(=O)N[C@H](C(=O)N[C@@H](Cc2ccccc2)C[C@H](O)[C@H](Cc2ccccc2)NC(=O)OCc2cncs2)C(C)C)cs1 [RITONAVIR, ritonavir]
% Control (Compound + CSA) (P-glycoprotein (PgP)): 81.5%
% Control (Compound) (P-glycoprotein (PgP)): 100.6%
Predicted Ctox (H4IIE cells [3]): 52 µM
